The text below walks through data of patent US8796307B2, “Beta2-adrenoreceptor agonists” (Novartis AG, priority 1999, dated 2014).

Where a name gives a salt, the structure may show the parent alone. Read-outs that look alike come from different tables or passages of the source. Where only a bound is given, the exact number is not on record here.

One assay deals with β1-adrenoreceptor (Homo sapiens, UniProt P08588). As to the kind of experiment: cAMP determination in cells expressing β1-adrenoreceptor. Format: cell-based. The source says: (§1) Accordingly the invention also provides a compound of formula I in free, salt or solvate form for use as a pharmaceutical. […] The β2 agonist activity, onset of action and duration of action of the agents of the invention may be tested using the guinea pig tracheal stip in vitro assay according to the procedure of R. A. Coleman and A. T. Nials, J. Pharmacol. Methods (1989), 21(1), 71-86. The binding potency and selectivity for the β2-adrenoreceptor relative to the β1-adrenoreceptor can be measured by a classical filtration binding assay according to the procedure of Current Protocols in Pharmacology (S. J. Enna (editor-in-chief) et al, John Wiley & Son, Inc, 1998), or by cAMP determination in cells expressing β2- or β1-adrenoceptor, according to the procedure of B. January et al, British J. Pharmacol. 123: 701-711 (1998).

A further assay has as its target β2-adrenoreceptor (Homo sapiens, UniProt P07550). Briefly: cAMP determination in cells expressing β2-adrenoreceptor. The assay is classed as cell-based. Conditions: read-out: EC50 (β2), binding potency measured by cAMP determination.
From the text: as §1

Assay [1] deals with guinea pig tracheal strip. As to the kind of experiment: guinea pig tracheal strip in vitro assay.
From the text: as §1

[2] abbreviates: cells expressing β1-adrenoreceptor, read-out: EC50 (β1), binding potency measured by cAMP determination.

Chain of β2-adrenoreceptor (P07550 whole entry, species assumed): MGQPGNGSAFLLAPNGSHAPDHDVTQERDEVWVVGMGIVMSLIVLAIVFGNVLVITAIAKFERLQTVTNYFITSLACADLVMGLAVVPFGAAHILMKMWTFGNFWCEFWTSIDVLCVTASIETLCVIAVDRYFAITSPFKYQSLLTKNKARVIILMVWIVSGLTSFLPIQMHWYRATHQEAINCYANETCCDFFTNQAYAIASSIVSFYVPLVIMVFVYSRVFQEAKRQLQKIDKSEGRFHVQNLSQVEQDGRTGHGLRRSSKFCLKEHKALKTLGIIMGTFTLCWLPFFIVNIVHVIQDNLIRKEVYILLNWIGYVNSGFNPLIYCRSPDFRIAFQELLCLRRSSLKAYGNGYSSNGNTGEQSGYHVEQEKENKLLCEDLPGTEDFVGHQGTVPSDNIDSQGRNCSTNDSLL
Chain of β1-adrenoreceptor (P08588 whole entry, species assumed): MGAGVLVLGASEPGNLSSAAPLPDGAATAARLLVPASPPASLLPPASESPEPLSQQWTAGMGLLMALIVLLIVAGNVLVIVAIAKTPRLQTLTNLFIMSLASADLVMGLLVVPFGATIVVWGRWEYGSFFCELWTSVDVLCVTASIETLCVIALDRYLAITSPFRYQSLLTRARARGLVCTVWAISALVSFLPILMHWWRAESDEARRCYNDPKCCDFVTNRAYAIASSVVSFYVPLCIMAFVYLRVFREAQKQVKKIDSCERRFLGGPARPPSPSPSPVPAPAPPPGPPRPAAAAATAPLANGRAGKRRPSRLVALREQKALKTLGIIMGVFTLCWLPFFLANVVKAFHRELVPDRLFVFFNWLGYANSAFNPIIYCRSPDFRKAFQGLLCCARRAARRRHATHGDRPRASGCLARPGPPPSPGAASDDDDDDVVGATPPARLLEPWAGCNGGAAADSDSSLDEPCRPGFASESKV

Take `COc1ccc(OC)c2c1CC(NC[C@H](O)c1ccc(O)c3[nH]c(=O)ccc13)C2` [Example 1, (R)-8-hydroxy-5-[2-(4,7-Dimethoxy-indan-2-ylamino)-1-hydroxy-ethyl]-1H-quinolin-2-one hydrochloride]: the EC50 on β1-adrenoreceptor (setting [2]) was 9.52 nM; at β2-adrenoreceptor it was 0.92 nM.
As to `CCc1cc2c(cc1CC)CC(NCC(O)c1ccc(O)c3[nH]c(=O)ccc13)C2` (stereo not shown) [Example 2, 8-hydroxy-5-[2-(5,6-diethyl-indan-2-ylamino)-1-hydroxy-ethyl]-1H-quinolin-2-one], the EC50 at β1-adrenoreceptor stood at 1.25 nM; at β2-adrenoreceptor it was 0.23 nM. Besides, the “T(50%), time for inhibition of contraction to decay to 50% of its maximum value” (from here on “T(50%), time for inhibition”) in assay [1] (at 71 nM concentration) is > 400 min.
In the case of `CCc1ccc(CC)c2c1CC(NC[C@H](O)c1ccc(O)c3[nH]c(=O)ccc13)C2` [Example 4], the EC50 came to 14.5 nM at β1-adrenoreceptor (setting [2]) and 6.07 nM at β2-adrenoreceptor. Besides, in assay [1] (at 100 nM), the “T(50%), time for inhibition” value is 82 min.
Turning to `O=c1ccc2c([C@@H](O)CNC3Cc4cc5c(cc4C3)CCCC5)ccc(O)c2[nH]1` [Example 5], the results for the EC50 on β1-adrenoreceptor (setting [2]) and at β2-adrenoreceptor were 6.1 nM and 0.79 nM, respectively. In addition, the “T(50%), time for inhibition” value in assay [1] (at 100 nM) came out at 444 min.
With `O=c1ccc2c([C@@H](O)CNC3Cc4cc5c(cc4C3)OCCO5)ccc(O)c2[nH]1` [Example 6], the EC50 at β1-adrenoreceptor (setting [2]) was found to be 3.6 nM; at β2-adrenoreceptor, 0.3 nM.
`CCCc1cc2c(cc1CCC)CC(NC[C@H](O)c1ccc(O)c3[nH]c(=O)ccc13)C2` [Example 8]: the EC50 came to 8.46 nM on β1-adrenoreceptor (setting [2]) and 0.57 nM on β2-adrenoreceptor.
Consider `CC1(NC[C@H](O)c2ccc(O)c3[nH]c(=O)ccc23)Cc2ccccc2C1` [Example 27, 8-Hydroxy-5-[(R)-1-hydroxy-2-(2-methyl-indan-2-ylamino)-ethyl]-1H-quinolin-2-one], for which the EC50 at β1-adrenoreceptor (setting [2]) is 0.5 nM; at β2-adrenoreceptor, 0.012 nM. Besides, the “T(50%), time for inhibition” value in assay [1] (at 1.0 nM) stood at 222 min.
As for `CC1(NC[C@H](O)c2ccc(O)c3[nH]c(=O)ccc23)Cc2cc3c(cc2C1)CCCC3` [Example 29, 8-Hydroxy-5-[(R)-1-hydroxy-2-(2-methyl-2,3,5,6,7,8-hexahydro-1H-cyclopenta[b]naphthalen-2-ylamino)-ethyl]-1H-quinolin-2-one], the “T(50%), time for inhibition” value in assay [1] (at 10 nM) stood at 279 min.

As a reminder, the EC50 is the midpoint of the concentration-response curve.
